Measured values reported in patent US10799442B2, “Compounds useful in the treatment and/or care of the skin, hair, nails, and/or mucous membranes” (LUBRIZOL ADVANCED MATERIALS, INC., priority 2015, dated 2020).
[ ]: non-standard residue; d: D form. The star is where a group is joined. Palmitoyl = CCCCCCCCCCCCCCCC(=O)*; NHhexadecyl = CCCCCCCCCCCCCCCCN*; Myristoyl = CCCCCCCCCCCCCC(=O)*; Orn = NCCC[C@H](N)C(=O)O; NHHex = CCCCCCN*

Tested on: human miRNA145
Assay: miRNA145 inhibition on Human Keratinocyte HaCaT cell line, direct quantification by luminescence
Type: cell-based
Details: HaCaT cells, 0.3 mg/ml, 24 hours, normalized with Snord48; mean of 3 experiments for DD14024, one experiment for the others
Experimental: The synthetic peptide candidates are evaluated for the inhibition of human miRNA145 expression level using a direct miRNA145 quantification assay based on luminescence detection in a Human Keratinocyte HaCaT cell line.
HaCat cells (Deutsches Krebsforschungszentrum) are seeded at 3.0×10^4 cells/well in 96-clear wells plates and incubated in a culture medium [(DMEM High Glucose with L-Glutamine (Lonza), supplemented with 10% Fetal Bovine Serum (Cultek)] for 24 hours at 37° C. in a water-saturated atmosphere of 95% air and 5% CO2. Then, the cells with the candidates added at 0.3 mg/ml in the culture medium are treated for 24 hours at 37° C., 95% air and 5% CO2. Cells with culture medium only are treated to the same conditions to provide basal conditions. Each cell culture condition is assayed at least in 6 biological replicates. At the end of the incubation period, the cells are lysed and the relative miRNA145 expression level is quantified by a specific assay kit (QuantiGene™ 2.0 miRNA Assay Kit) following manufacturer's instructions (Affymetrix). Briefly, to capture miRNA145, culture lysates are incubated overnight at 46±1° C. in 96-white well plates with the miRNA145 specific probe set (Capture extenders and Label extenders). As an endogenous expression control, the housekeeping Snord48 is quantified using a specific probe set. Next day, the signal amplification tree is built via sequential hybridization at 46±1° C. of three probes: PreAmplifier, Amplifier and Alkaline Phosphatase Label Probe. Then, the signal is detected by adding a chemiluminescent substrate and using a Microplate Luminometer Reader (Clariostar-BMG LabTech).
The miRNA145 expression level result is normalized with the Snord48 expression level for each cell culture condition and the relative decrease in the miRNA145 expression level is calculated respect to basal control (cells treated with culture medium only). The values represent the mean of 3 independent experiments for DD14024, and for the other candidates, represent the result of one experiment.

Going from “Ac-Asn-Glu-Ile-Arg-Val-Gln-OH (Ac-NEIRVQ-OH) [DD15026]” to “Ac-Asp-Gln-Met-Arg-Met-Gln-OH (Ac-DQMRMQ-OH) [DD15053]”, the “Relative level of miRNA145 respect to basal control (%)” value (“Relative level … (%)” for short) falls from 77.60 ± 5.43% to 58.64 ± 0.04%.

First: Ac-Asp-Glu-Met-Arg-Met-Gln-OH (Ac-DEMRMQ-OH) [DD15012]
Second: Ac-Gln-Asp-Met-Arg-Met-Gln-NHC6H13 (Ac-QDMRMQ-NHHex; SMILES CCCCCCNC(=O)[C@H](CCC(N)=O)NC(=O)[C@H](CCSC)NC(=O)[C@H](CCCNC(=N)N)NC(=O)[C@H](CCSC)NC(=O)[C@H](CC(=O)O)NC(=O)[C@H](CCC(N)=O)NC(C)=O) [DD15013]
The “Relative level … (%)” value of the first is lower: 71.05 ± 3.82% for the first, 84.32 ± 6.96% for the second.

“Ac-Gln-Asp-Met-Lys-Met-Asn-OH (Ac-QDMKMN-OH) [DD15027]” and “Ac-Gln-Gln-Met-Arg-Met-Gln-OH (Ac-QQMRMQ-OH) [DD15014]” are within error of each other in “Relative level … (%)” value: 78.47 ± 0.74% for the first, 80.06 ± 3.47% for the second.

Going from “Ac-Gln-Glu-Met-Arg-Met-Asn-OH (Ac-QEMRMN-OH) [DD15056]” to “Ac-Gln-Glu-Met-Arg-Met-Gln-NH2 (Ac-QEMRMQ-NH2) [DD14023]”, the “Relative level … (%)” value rises from 72.43 ± 1.39% to 87.03 ± 2.65%.

“Ac-Gln-Glu-Met-Arg-Met-Gln-NHC6H13 (Ac-QEMRMQ-NHHex) [DD15004]” and “Ac-Gln-Glu-Met-Arg-Met-Gln-Thr-NH2 (Ac-QEMRMQT-NH2) [DD15047]” are within error of each other in “Relative level … (%)” value: 89.03 ± 5.37% for the first, 77.67 ± 9.10% for the second.

“Ac-Gln-Glu-Met-Arg-Met-Gln-Tyr-OH (Ac-QEMRMQY-OH) [DD15046]” and “Ac-Gln-Glu-Met-Arg-Met-Gln-Val-Tyr-OH (Ac-QEMRMQVY-OH) [DD15049]” are within error of each other in “Relative level … (%)” value: 74.02 ± 1.98% for the first, 80.09 ± 7.49% for the second.

Going from “Ac-Gln-Glu-Met-Arg-Met-Glu-OH (Ac-QEMRME-OH) [DD15020]” to “Ac-Gln-Glu-Met-Lys-Leu-Gln-OH (Ac-QEMKLQ-OH) [DD15024]”, the “Relative level … (%)” value rises from 62.43 ± 0.89% to 87.92 ± 1.32%.

Going from “Ac-Gln-Glu-Met-Lys-Met-Gln-OH (Ac-QEMKMQ-OH) [DD15017]” to “Ac-Glu-Gln-Met-Arg-Met-Gln-OH (Ac-EQMRMQ-OH) [DD15054]”, the “Relative level … (%)” value falls from 85.50 ± 1.74% to 72.50 ± 2.88%.

First: Ac-Glu-Glu-Ile-Arg-Met-Gln-NHC16H33 (Ac-EEIRMQ-NHhexadecyl; SMILES CCCCCCCCCCCCCCCCNC(=O)[C@H](CCC(N)=O)NC(=O)[C@H](CCSC)NC(=O)[C@H](CCCNC(=N)N)NC(=O)[C@@H](NC(=O)[C@H](CCC(=O)O)NC(=O)[C@H](CCC(=O)O)NC(C)=O)[C@@H](C)CC) [DD15023]
Second: Ac-Glu-Glu-Met-Arg-Met-Gln-OH (Ac-EEMRMQ-OH) [DD15051]
The “Relative level … (%)” value of the first is lower: 74.48 ± 3.34% for the first, 92.26 ± 1.61% for the second.

“Ac-Pro-Gln-Glu-Met-Arg-Met-Gln-OH (Ac-PQEMRMQ-OH) [DD15045]” and “Ac-Pro-Val-Gln-Glu-Met-Arg-Met-Gln-OH (Ac-PVQEMRMQ-OH) [DD15048]” are within error of each other in “Relative level … (%)” value: 90.71 ± 4.78% for the first, 89.54 ± 3.79% for the second.

Ac-QEM[Orn]MQ-OH [DD15022] and “Ac-Ser-Gln-Glu-Met-Arg-Met-Gln-Thr-NH2 (Ac-SQEMRMQT-NH2) [DD15050]” are within error of each other in “Relative level … (%)” value: 75.41 ± 2.25% for the first, 72.44 ± 3.87% for the second.

“H-Gln-Asp-Met-Arg-Met-Asn-NH2 (H-QDMRMN-NH2) [DD15025]” and “H-Gln-Glu-Ile-Arg-Met-Gln-NH2 (H-QEIRMQ-NH2) [DD15016]” are within error of each other in “Relative level … (%)” value: 86.95 ± 0.55% for the first, 87.63 ± 4.46% for the second.

“H-Gln-Glu-Met-Arg-Ile-Gln-NH2 (H-QEMRIQ-NH2) [DD15019]” and “H-Gln-Glu-Met-Arg-Leu-Gln-NH2 (H-QEMRLQ-NH2) [DD15055]” are within error of each other in “Relative level … (%)” value: 67.00 ± 2.89% for the first, 67.03 ± 0.23% for the second.

Compared with “H-Gln-Glu-Met-Arg-Met-Gln-OH (H-QEMRMQ-OH) [DD15002]”, “Myr-Gln-Glu-Met-Arg-Met-Gln-NH2 (Myristoyl-QEMRMQ-NH2) [DD15052]” is higher in “Relative level … (%)” value: 89.75 ± 0.69% for the first, 92.94 ± 1.35% for the second.

First: Myr-Glu-Glu-Met-Arg-Met-Gln-OH (Myristoyl-EEMRMQ-OH; SMILES CCCCCCCCCCCCCC(=O)N[C@@H](CCC(=O)O)C(=O)N[C@@H](CCC(=O)O)C(=O)N[C@@H](CCSC)C(=O)N[C@@H](CCCNC(=N)N)C(=O)N[C@@H](CCSC)C(=O)N[C@@H](CCC(N)=O)C(=O)O) [DD15011]
Second: Palm-Gln-Glu-Leu-Arg-Met-Gln-OH (Palmitoyl-QELRMQ-OH; SMILES CCCCCCCCCCCCCCCC(=O)N[C@@H](CCC(N)=O)C(=O)N[C@@H](CCC(=O)O)C(=O)N[C@@H](CC(C)C)C(=O)N[C@@H](CCCNC(=N)N)C(=O)N[C@@H](CCSC)C(=O)N[C@@H](CCC(N)=O)C(=O)O) [DD15015]
The “Relative level … (%)” value of the first is higher: 73.29 ± 4.37% for the first, 14.07 ± 0.28% for the second.

For “Palm-Gln-Glu-Met-Arg-Met-Gln-OH (Palmitoyl-QEMRMQ-OH) [DD15003]”, the “Relative level … (%)” value was 76.38 ± 7.00%.
